Results from ChEMBL document CHEMBL4219256, “Design, Synthesis, and Biological Evaluation of 4-Quinoline Carboxylic Acids as Inhibitors of Dihydroorotate Dehydrogenase” (J Med Chem, 2018).
pIC50: −log10 of the molar value.

Key:
[1] = system: MIA PaCa-2; experiment: Antiproliferative activity against human MIAPaCa2 cells after 72 hrs by MTT assay; type: functional, cell-based
[2] = target: Dihydroorotate dehydrogenase (quinone), mitochondrial (Homo sapiens, UniProt Q02127)
Description: Inhibition of DHODH (unknown origin) expressed in Escherichia coli Rosetta2(DE3) assessed as reduction of DCIP using dihydroorotate as substrate preincubated for 30 mins followed by substrate addition in presence of CoQ10 measured after 1 hr

[3] = system: HCT-116; experiment: Antiproliferative activity against human HCT116 cells over-expressing DHODH after 72 hrs by MTT assay; type: functional, cell-based
[4] = system: HL-60; experiment: Antiproliferative activity against human HL60 cells after 72 hrs by MTT assay
[5] = Thermodynamic aqueous solubility of the compound in pH 7.4 phosphate buffer at 2.9 mg/ml after overnight incubation by CLND method; type: physicochemical
[6] = Thermodynamic aqueous solubility of the compound in pH 7.4 phosphate buffer at 4.9 mg/ml after overnight incubation by CLND method; type: physicochemical
[7] = system: HCT-116; experiment: Growth inhibition of human HCT116 cells over-expressing DHODH at 2 times antiproliferative IC50 after 72 hrs in presence of 5 uM uridine by MTT assay; type: functional
[8] = Thermodynamic aqueous solubility of the compound in pH 7.4 phosphate buffer at 8.7 mg/ml after overnight incubation by CLND method; type: physicochemical
[9] = Thermodynamic aqueous solubility of the compound in pH 7.4 phosphate buffer at 6.7 mg/ml after overnight incubation by CLND method; type: physicochemical

Sequence of Dihydroorotate dehydrogenase (quinone), mitochondrial (Q02127 whole entry): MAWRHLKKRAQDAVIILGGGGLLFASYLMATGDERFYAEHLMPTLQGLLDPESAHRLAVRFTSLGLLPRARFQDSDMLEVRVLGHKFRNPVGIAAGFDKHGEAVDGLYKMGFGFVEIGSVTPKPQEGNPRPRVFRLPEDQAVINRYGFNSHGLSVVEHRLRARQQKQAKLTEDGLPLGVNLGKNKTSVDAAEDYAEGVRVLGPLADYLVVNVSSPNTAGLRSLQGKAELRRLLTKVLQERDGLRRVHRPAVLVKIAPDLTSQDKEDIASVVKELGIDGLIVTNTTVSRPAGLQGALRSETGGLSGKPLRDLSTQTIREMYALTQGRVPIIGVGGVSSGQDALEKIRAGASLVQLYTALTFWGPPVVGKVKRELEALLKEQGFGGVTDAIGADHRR

| SMILES | pIC50 [1] | pIC50 [2] | pIC50 [3] | other results |
| --- | --- | --- | --- | --- |
| Cc1c(-c2ccc(-c3ccccc3)cc2)nc2ncccc2c1C(=O)O | < 4.00 | 5.91 | < 4.00 |  |
| O=C(O)c1cc(-c2ccc(-c3ncccn3)cc2)nc2ccccc12 | < 4.30 | < 3.70 | < 4.30 |  |
| Cc1ccc(-c2ccc(-c3nc4ccc(Cl)cc4c(C(=O)O)c3C)cc2)c(Cl)n1 | 5.12 |  | 5.57 |  |
| Cc1ccc(-c2ccc(-c3nc4ccccc4c(C(=O)O)c3C)cc2)c(Cl)n1 | 5.11 |  | 4.81 |  |
| O=C(O)c1cc(-c2ccc(-c3ccccn3)cc2)nc2ccccc12 | 4.31 |  | 4.40 |  |
| Cc1ccc(-c2ccc(-c3nc4cnccc4c(C(=O)O)c3C)cc2)c(Cl)n1 | < 4.00 | 5.28 | < 4.00 |  |
| O=C(O)c1cc(-c2ccc(N3CCOCC3)cc2)nc2ccccc12 | < 4.00 | < 3.70 | < 4.00 |  |
| COC(=O)c1cc(-c2ccc(C3CCCCC3)cc2)nc2ccccc12 | 4.43 | < 3.70 | 4.37 |  |
| O=C(O)c1cc(-c2ccc(-c3cccnc3Cl)cc2)nc2ccccc12 | 5.15 |  |  | pIC50 [4]: 5.15 |
| Cc1ccncc1-c1ccc(-c2cc(C(=O)O)c3ccccc3n2)cc1 | 4.75 |  | 4.97 |  |
| COC(=O)c1cc(-c2ccc(-c3cccnc3)cc2)nc2ccccc12 | 5.19 | < 3.70 | 5.21 |  |
| Cc1ccc(-c2ccc(-c3nc4ccccc4c(C(=O)O)c3C)cc2)c(F)n1 | 4.50 |  | 4.62 |  |
| O=C(O)c1cc(-c2ccc(C3CCCCC3)cc2)nc2ccccc12 | 5.23 |  | 5.37 | Therm_solubility [5]: 43.9 µM; Therm_solubility [6]: 48 µM; growth inhibition (GI) [7]: <50% |
| Cc1c(-c2ccc(-c3ccccc3)cc2)nc2cnccc2c1C(=O)O | 5.35 | 7.55 | 5.20 | pIC50 [4]: 5.15; Therm_solubility [8]: 3096.3 µM; Therm_solubility [9]: 2628.4 µM |
| O=C(O)c1cc(-c2ccc(-c3ccc(F)nc3)cc2)nc2ccccc12 |  |  | 4.77 |  |
| Cc1c(-c2ccc(-c3cccnc3Cl)cc2)nc2ccc(Cl)cc2c1C(=O)O | 5.33 |  | 5.36 |  |
| Cc1ccc2nc(-c3ccc(-c4cccnc4Cl)cc3)c(C)c(C(=O)O)c2c1 | 5.08 |  | 4.95 |  |
| O=C(O)c1cc(-c2ccc(-c3cccnc3F)cc2)nc2ccccc12 | 4.49 | 5.85 | 4.95 |  |
| O=C(O)c1cc(-c2ccc(-c3cnccc3C(F)(F)F)cc2)nc2ccccc12 | 5.06 |  | 5.41 |  |
| COc1ncccc1-c1ccc(-c2cc(C(=O)O)c3ccccc3n2)cc1 | 4.87 |  |  |  |
| Cc1ccc(-c2ccc(-c3nc4ccc(F)cc4c(C(=O)O)c3C)cc2)c(F)n1 | 4.47 |  | 4.47 |  |
| COC(=O)c1cc(-c2ccc(-c3ccccc3)cc2)nc2ccccc12 | 4.94 | < 3.70 | 5.16 |  |
| Cc1c(-c2ccc(-c3cccnc3F)cc2)nc2ccc(Cl)cc2c1C(=O)O | 4.83 |  | 5.27 |  |
| Cc1c(-c2ccc(-c3ccccc3)cc2)nc2ccccc2c1C(=O)O | 5.28 |  | 5.07 |  |
| O=C(O)c1cc(-c2ccccc2)nc2ccccc12 [CINCHOPHEN] | < 4.00 | 3.84 | < 4.00 |  |
